In ChEMBL document CHEMBL4765340, “Novel potent antiplatelet thrombotic agent derived from biguanide for ischemic stroke” (Eur J Med Chem, 2020):

Columns and labels:
[1] = Inhibition of thrombin-stimulated human platelet aggregation by measuring aggregation at 0.50 mM measured after 3 hrs by scanning electron microscopy (Rvb= 87.2 +/- 4.0%); type: functional; parameters: scale not given: the % may be the effect or the level left; conditions: dose 0.5 mM
[2] = Suppression of glycoprotein IIb/IIIa activation in thrombin-stimulated human platelets by measuring activated GPIIb/IIIa at 0.10 mM measured after 3 hrs by PAC-1-FITC dye based flow cytometry (reference value: 90.1%); type: functional; conditions: Platelet, at 0.1 mM
[3] = Suppression of P-selectin expression in thrombin-stimulated human platelets by measuring CD62P positive platelets at 0.50 mM after 3 hrs by flow cytometry analysis (reference value: 78.2%); type: functional; conditions: Platelet, at 0.5 mM
Mus musculus [4] = test: Antithrombotic activity in calcein-labelled platelet-mediated ferric chloride-induced arterial injury thrombosis C57BL/6J mouse model assessed as thrombus weight at 300 mg/kg, po administrated twice a day measured upto 7 days (reference value: 3.3 +/- 0.3 mg); type: functional; conditions: time day <=7
Mus musculus [5] = test: Antithrombotic activity in calcein-labelled platelet-mediated ferric chloride-induced arterial injury thrombosis C57BL/6J mouse model assessed as thrombus length at 200 mg/kg, po administrated twice a day measured upto 7 days (reference value: 4.4 +/- 0.4 mm); type: functional; conditions: time day <=7
[6] = Half life in Sprague-Dawley rat at 200 mg/kg, po measured by HPLC-MS/MS analysis; type: ADME, organism-based; conditions: in vivo
Mus musculus [7] = test: Antithrombotic activity in collagen-epinephrine induced pulmonary thromboembolism mouse model assessed as protection rate at 200 mg/kg, ig twice a day for 7 days followed by administered collagen-epinephrine relative to control; type: functional; conditions: time 7 day

**Q.** Which Activity [1] does the source give for CN(C)C(=N)NC(=N)NS(=O)(=O)C(F)(F)F here?
**A.** The Activity was 21%.

**Q.** What about the level, % of control at 100 µM [2] of the same molecule?
**A.** Its level, % of control at 100 µM is 44.5%.

**Q.** What about the level, % of control at 500 µM [3] of the same molecule?
**A.** Its level, % of control at 500 µM is 45.2%.

**Q.** And the Activity (Mus musculus [4])?
**A.** Its Activity is 0.4 mg.

**Q.** What about the Activity (Mus musculus [5]) of the same molecule?
**A.** Its Activity is 1.5 mm.

**Q.** What about the half-life [6] of the same molecule?
**A.** The half-life was 4.94 h.

**Q.** And the Activity (Mus musculus [7])?
**A.** The Activity was 70%.
